Data as given in publication PMC8305389, “Tuning Photodynamic Properties of BODIPY Dyes, Porphyrins’ Little Sisters” (Molecules, 2021).
Marks after values point to notes of the source that are not given here.

Columns and labels:
[1] = parameters: method as in doi:10.1016/0009-2614(96)00838-X; conditions: in EtOH; cited from earlier work
[2] = Photobleaching in serum-containing cell culture medium; assay type: physicochemical; conditions: 10 µM, 1 h of irradiation, 500W halogen lamp
Procedure: The photobleaching experiments were performed in a serum-containing cell culture medium at a concentration of 10 µM. The samples were prepared by direct dilution from the 1 mM DMSO stock solution (0.5 mM in case of 4b). The quartz cuvette with the sample (2.5 mL) was irradiated by the 500W halogen lamp (Tip) from a distance of 60 cm at room temperature. The light was filtered through a 7 cm water filter to eliminate heat. The absorption spectra were collected every 10 min. The experiment was performed in triplicate.

[3] = tested on: human melanoma (SK-MEL-28) cells; test: Photodynamic activity (phototoxicity) after light activation, Neutral Red uptake; assay type: cell-based
Procedure: (§1) The human cervical carcinoma (HeLa) and human melanoma (SK-MEL-28) cell lines were purchased from the American Type Cell Culture Collection (ATCC; Manassas, VA, USA). Both cell lines were cultured in Dulbecco’s modified Eagle’s medium (DMEM) without phenol red (Lonza, Verviers, Belgium) and supplemented with 10% heat-inactivated fetal bovine serum (Sigma-Aldrich (Merck, Darmstadt, Germany), 1% penicillin/streptomycin solution (Lonza), 10 mM HEPES buffer (Lonza), and 4 mM ultraglutamine I (alanyl-L-glutamine; Lonza). The cell lines were cultured in 75 cm^2 tissue culture flasks (TPP, Trasadingen, Switzerland) and maintained in a CO2 incubator at 37 °C in a humidified atmosphere of 5% CO2 and subcultured every 3−4 days. For the cytotoxicity experiments (phototoxicity and dark toxicity), cells were seeded into 96-well plates (TPP) at a density of 7.5 × 10^3 (HeLa and SK-MEL-28) cells per well for 24 h.
(§2) Stock solutions of the investigated compounds were prepared in DMSO at a concentration of 0.5 mM (4b) or 1 mM (all other compounds) and were sterilized by filtration through 0.22 μm syringe MCE filters. The stock solutions were diluted by the above-mentioned cell culture medium to the required concentrations. The maximum DMSO concentration in the medium in the experiments was 1% (2% in case of cpd. 4b). Cytoxicity of DMSO at corresponding concentrations (without studied compounds) was assessed in all cytotoxicity experiments as well—no toxicity against SK-MEL-28 or HeLa cells was observed.
(§3) For the photodynamic activity assessment experiments (phototoxicity), both HeLa and SK-MEL-28 cells were incubated overnight (12 h) with the studied compounds. The cells were then carefully and swiftly washed twice with a prewarmed sterile phosphate-buffered saline, fresh cell culture medium was added, and cells were subsequently irradiated for 15 min using a 450 W ozone-free Xe lamp (Newport; intensity reduced to 400 W). The lamp was equipped with a long-pass filter (Newport 20CGA-455) and an 8-cm water filter to cut off undesirable wavelengths and heat radiation, respectively (λ > 455 nm, 15.3 mW cm^−2, 15 min, 13.7 J cm^−2). Cellular viability was measured after an additional 24 h by the above-mentioned NR uptake assay. At least four independent experiments, each in triplicate, were performed.
(§4) The concentrations of the studied compounds that induced a 50% decrease in cellular viability after treatment under the dark conditions (TC50, the median toxic concentration) or after the photodynamic treatment (EC50, the median effective concentration) were calculated using GraphPad Prism software (version 9.1.2; GraphPad Software, Inc., San Diego, CA, USA) for each independent experiment. The data are presented as the means ± standard deviations of these values.

[4] = tested on: human cervical carcinoma (HeLa) cells; test: as above; assay type: cell-based; conditions: Homo sapiens, light or radiation study; HeLa; 12 h incubation; λ > 455 nm, 15.3 mW cm−2, 15 min, 13.7 J cm−2
Procedure: as §1, §2, §3, §4

SK-MEL-28 cells = test: Dark toxicity (without irradiation), Neutral Red uptake; assay type: cell-based, human; conditions: 24 h in the dark, compounds precipitated over listed values
Procedure: as §1, §2
To assess dark toxicities (inherent toxicities of the studied compounds without irradiation), SK-MEL-28 cells were treated with studied PSs for 24 h in the dark. Viability was evaluated after two washing steps using the Neutral Red (NR; Sigma-Aldrich (Merck, Darmstadt, Germany) uptake assay, based on the ability of the living cells to incorporate NR into their intact lysosomes (concentration of NR in cell culture medium was 30 μg/mL and incubation time with NR was 2 h). The absorbance of soluble NR in cell lysate was measured at λ = 540 nm using a Tecan Infinite 200 M plate reader (Tecan, Männedorf, Switzerland). The viability of each experimental group was expressed as the percentage of the untreated controls incubated under the same conditions (100%). After staining (before lysis), the cells were briefly investigated under the microscope to verify changes in cellular morphology and the presence of NR in lysosomes (orange-red spots in the cells). These observations were in agreement with NR measurements.
as §4

[5] = Absorption and fluorescence measurements (quantum yield, lifetime); assay type: physicochemical; conditions: MeOH
Procedure: The singlet oxygen quantum yields (ΦΔ) and the fluorescence quantum yields (ΦF) of tested samples in MeOH were determined using published comparative (relative) methods with rhodamin-G6 used as a reference for fluorescence (ΦF = 0.94 in EtOH [31]), and bengal rose as a reference for singlet oxygen determinations (ΦΔ = 0.76 in MeOH [32]). Singlet oxygen measurements were performed with 1,3-diphenylisobenzofuran as the chemical scavenger of singlet oxygen by monitoring its decomposition at 417 nm. The ΦF values were also determined by an absolute method using an integrating sphere in an FLS1000 fluorimeter (Edinburgh Instruments, Edinburgh, UK). Fluorescence lifetimes were measured on the same fluorimeter upon excitation by HPL510 laser (Edinburgh Instruments, λ = 506.1 nm).

[6] = parameters: method as in PMID 10546544; conditions: in MeOH; cited from earlier work

Structure (SMILES): CCN=c1cc2oc3cc(NCC)c(C)cc3c(-c3ccccc3C(=O)OCC)c-2cc1C.Cl [rhodamin-G6]
- fluorescence quantum yield (ΦF) of reference [1]: 0.94

Structure (SMILES): CC1=CC(C)=[N+]2C1=C(c1ccc(OCCCCCN3C(=O)c4ccccc4C3=O)cc1)c1c(C)cc(C)n1[B-]2(F)F [2a, 1,3,5,7-Tetramethyl-8-{4-[5-(phthalimidyl)pentyloxy]phenyl}-4,4-difluoro-4-bora-3a,4a-diaza-s-indacene]
- absorption remaining, of the original value, after irradiation (photobleaching) [2]: approximately 87%
- TC50/EC50, phototherapeutic index [3]: >3.92
- EC50 ([3]; Homo sapiens, light or radiation study, 12 h incubation, λ > 455 nm, 15.3 mW cm−2, 15 min, 13.7 J cm−2): 2.55 ± 0.14 µM
- EC50 [4]: 3.6 ± 0.19 µM
- TC50, dark toxicity (SK-MEL-28 cells): >10^b μM
- absorption maximum (λmax) [5]: 498 nm
- emission maximum (λF) [5]: 507 nm
- extinction coefficient (log ε) ([5]; at λmax): 4.77
- fluorescence quantum yield, absolute method (ΦF(absol)) ([5]; integrating sphere): 0.52
- fluorescence quantum yield, relative method (ΦF(relat)) ([5]; rhodamin-G6 as reference): 0.49
- fluorescence lifetime (τF) ([5]; λexc = 506.1 nm): 3.27 ns

Structure (SMILES): O=C(O)c1c(Cl)c(Cl)c(Cl)c(Cl)c1-c1c2cc(I)c(=O)c(I)c-2oc2c(I)c(O)c(I)cc12 [bengal rose]
- singlet oxygen quantum yield (ΦΔ) of reference [6]: 0.76
